Laboratory results: DBAASP
In brackets after ≈: the same amount, converted by molar mass. Several values for one entry are separate records, joined by “and”; a condition that tells them apart may be missing. Equal entries are not always repeated. One block for each compound: values may come before it.

Key:
Assay in all cases: ≥ marks a high value that may be exact or a test limit, other limits are often not marked, values filed in µg/mL are converted to µM
[1] = tested on: Bacillus megaterium ATCC 10778
[2] = tested on: Bacillus subtilis ATCC 6633
[3] = tested on: Candida albicans MDM8
[4] = tested on: Candida tropicalis IOC 4560
[5] = tested on: Enterobacter cloacae beta-12
[6] = tested on: Escherichia coli SBS 363
[7] = tested on: Micrococcus luteus A270
[8] = tested on: Pseudomonas aeruginosa ATCC 27853
[9] = tested on: Serratia marcescens ATCC 4112
[10] = tested on: Staphylococcus aureus ATCC 29213
[11] = tested on: Aspergillus flavus KCTC 6905
[12] = tested on: Aspergillus fumigatus KCTC 6145
[13] = tested on: Candida albicans KCTC 7270
[14] = tested on: Candida krusei CCARM 14017
[15] = tested on: Candida parapsilosis CCARM 14016
[16] = tested on: Candida tropicalis KCTC 7221
[17] = tested on: Fusarium verticillioides KCTC 6149
[18] = tested on: Trichosporon beigelii KCTC 7707
[19] = tested on: Candida albicans CGMCC 2.2086
[20] = tested on: Candida parapsilosis CGMCC 2.3989
[21] = tested on: Candida tropicalis CGMCC 2.1975
[22] = tested on: Lacticaseibacillus rhamnosus 7469
[23] = tested on: Lactiplantibacillus plantarum 8014
[24] = tested on: Staphylococcus aureus ATCC 25923
[25] = tested on: Staphylococcus epidermidis ATCC 12228
[26] = tested on: Escherichia coli 078
[27] = tested on: Escherichia coli 987P
[28] = tested on: Escherichia coli ATCC 25922
[29] = tested on: Escherichia coli K88
[30] = tested on: Escherichia coli K99
[31] = tested on: Escherichia coli UB1005
[32] = tested on: Pseudomonas aeruginosa PAO1
[33] = tested on: Salmonella enterica subsp. enterica serovar Typhimurium ATCC 14028
[34] = tested on: Salmonella enterica subsp. enterica serovar Typhimurium C77-31
[35] = tested on: Escherichia coli W3110
[36] = tested on: Klebsiella pneumoniae ATCC BAA-1705

Structure (SMILES): CC(C)C[C@H](NC(=O)[C@H](C)NC(=O)CNC(=O)[C@H](CC(C)C)NC(=O)[C@@H](N)Cc1ccccc1)C(=O)N[C@@H](Cc1c[nH]c2ccccc12)C(=O)N[C@@H](CC(N)=O)C(=O)N[C@H](C(=O)N[C@@H](Cc1ccccc1)C(=O)N[C@@H](CCCCN)C(=O)N[C@@H](CO)C(=O)N[C@H](C(=O)N[C@@H](Cc1ccccc1)C(N)=O)C(C)C)C(C)C [FLGALWNVFKSVF]
MIC [1]: 1.6 µM (≈ 2.44 µg/mL)
MIC [2]: 0.8 µM (≈ 1.22 µg/mL)
MIC [3]: 6.3 µM (≈ 9.62 µg/mL)
MIC [4]: 1.6 µM (≈ 2.44 µg/mL)
MIC [5]: ≥ 50 µM
MIC [6]: 3.1 µM (≈ 4.73 µg/mL)
MIC [7]: 0.8 µM (≈ 1.22 µg/mL)
MIC [8]: > 50 µM
MIC [9]: 0.4 µM (≈ 0.611 µg/mL)
MIC [10]: 0.8 µM (≈ 1.22 µg/mL)

Structure (SMILES): CC[C@H](C)[C@H](NC(=O)CNC(=O)[C@H](CCC(N)=O)NC(=O)[C@H](C)NC(=O)[C@@H](NC(=O)[C@H](CCCCN)NC(=O)[C@H](CCCCN)NC(=O)[C@H](CC(C)C)NC(=O)[C@H](C)NC(=O)[C@H](CC(N)=O)NC(=O)[C@H](CC(C)C)NC(=O)CN)C(C)C)C(=O)N[C@@H](Cc1cnc[nH]1)C(=O)N[C@@H](CCC(=O)O)C(=O)N[C@@H](C)C(=O)N[C@@H](C)C(=O)N[C@@H](CCCCN)C(=O)N[C@@H](CC(C)C)C(=O)N[C@H](C(=O)N[C@@H](CC(N)=O)C(=O)N[C@@H](CC(N)=O)C(=O)N[C@@H](Cc1cnc[nH]1)C(=O)N[C@H](C(=O)N[C@@H](CCC(N)=O)C(N)=O)C(C)C)[C@@H](C)CC [GLNALKKVAQGIHEAAKLINNHVQ]
MIC [11]: ≥ 32 µM and 16 µM
MIC [12]: ≥ 32 µM and 16 µM
MIC [13]: 4 µM and 8 µM
MIC [14]: 6 µM and 8 µM
MIC [15]: ≥ 64 µM
MIC [16]: 2 µM and 1 µM
MIC [17]: ≥ 32 µM
MIC [18]: 1.5 µM and 1 µM

Structure (SMILES): CC[C@H](C)[C@H](NC(=O)[C@H](C)NC(=O)[C@H](CCC(=O)O)NC(=O)[C@H](Cc1cnc[nH]1)NC(=O)[C@H](C)NC(=O)CNC(=O)[C@H](CCC(N)=O)NC(=O)[C@H](Cc1ccccc1)NC(=O)[C@@H](NC(=O)[C@H](CCCCN)NC(=O)[C@H](CCCCN)NC(=O)[C@H](CC(C)C)NC(=O)[C@H](C)NC(=O)[C@H](CC(N)=O)NC(=O)[C@H](CC(C)C)NC(=O)CN)C(C)C)C(=O)N[C@@H](CCCCN)C(=O)N[C@@H](CC(C)C)C(=O)N[C@@H](C)C(=O)N[C@@H](CC(N)=O)C(=O)N[C@@H](CC(N)=O)C(=O)N[C@@H](Cc1cnc[nH]1)C(=O)N[C@H](C(=O)N[C@@H](CCC(N)=O)C(N)=O)C(C)C [GLNALKKVFQGAHEAIKLANNHVQ]
MIC [11]: ≥ 64 µM
MIC [13]: 8 µM and 16 µM
MIC [14]: 8 µM (≈ 20.8 µg/mL)
MIC [15]: ≥ 64 µM
MIC [16]: 2 µM (≈ 5.2 µg/mL)
MIC [17]: ≥ 64 µM
MIC [18]: 6 µM and 2 µM

Structure (SMILES): CC[C@H](C)[C@H](N)C(=O)N[C@@H](Cc1cnc[nH]1)C(=O)N[C@@H](Cc1cnc[nH]1)C(=O)N[C@H](C(=O)N[C@@H](Cc1cnc[nH]1)C(=O)N[C@@H](Cc1cnc[nH]1)C(=O)N[C@@H](Cc1cnc[nH]1)C(=O)N[C@H](C(=O)N[C@@H](Cc1cnc[nH]1)C(=O)N[C@@H](Cc1cnc[nH]1)C(=O)N[C@H](C(=O)N[C@@H](Cc1cnc[nH]1)C(=O)N[C@@H](Cc1cnc[nH]1)C(=O)N[C@@H](Cc1cnc[nH]1)C(=O)N[C@H](C(=O)N[C@@H](Cc1cnc[nH]1)C(=O)N[C@@H](Cc1cnc[nH]1)C(=O)N[C@H](C(=O)N[C@@H](Cc1cnc[nH]1)C(=O)N[C@@H](Cc1cnc[nH]1)C(=O)N[C@@H](Cc1cnc[nH]1)C(N)=O)[C@@H](C)CC)[C@@H](C)CC)[C@@H](C)CC)[C@@H](C)CC)[C@@H](C)CC [IHHIHHHIHHIHHHIHHIHHH]
MIC [19]: 1 µM (≈ 2.75 µg/mL)
MIC [20]: 1 µM (≈ 2.75 µg/mL)
MIC [21]: 0.5 µM (≈ 1.38 µg/mL)
MIC [22]: ≥ 64 µM
MIC [23]: ≥ 64 µM
MIC [24]: > 64 µM
MIC [10]: > 64 µM
MIC [25]: > 64 µM

More lines, main results first:

MIC [19]: ≥ 64 µM
MIC [20]: ≥ 64 µM
MIC [21]: ≥ 64 µM
MIC [26]: ≥ 64 µM
MIC [27]: ≥ 64 µM
MIC [28]: > 64 µM
MIC [29]: ≥ 64 µM
MIC [30]: ≥ 64 µM
MIC [31]: ≥ 64 µM
MIC [22]: ≥ 64 µM
MIC [8]: > 64 µM
MIC [32]: > 64 µM
MIC [33]: > 64 µM
MIC [34]: ≥ 64 µM
MIC [24]: 64 µM (≈ 59.5 µg/mL)
MIC [10]: > 64 µM
MIC [25]: > 64 µM
Structure (SMILES): CC[C@H](C)[C@H](N)C(=O)N[C@@H](Cc1cnc[nH]1)C(=O)N[C@@H](Cc1cnc[nH]1)C(=O)N[C@H](C(=O)N[C@@H](Cc1cnc[nH]1)C(=O)N[C@@H](Cc1cnc[nH]1)C(=O)N[C@@H](Cc1cnc[nH]1)C(N)=O)[C@@H](C)CC [IHHIHHH]
MIC [23]: ≥ 64 µM

MIC [35]: 1 µM (≈ 2.39 µg/mL)
MIC [36]: 4 µM (≈ 9.58 µg/mL)
Structure (SMILES): CC[C@H](C)[C@H](N)C(=O)N[C@@H](Cc1c[nH]c2ccccc12)C(=O)N[C@@H](Cc1c[nH]c2ccccc12)C(=O)N[C@@H](C)C(=O)N[C@@H](CCCCN)C(=O)N[C@@H](Cc1c[nH]c2ccccc12)C(=O)NCC(=O)N[C@@H](CC(C)C)C(=O)N[C@@H](CCCCN)C(=O)N[C@@H](CC(C)C)C(=O)N[C@@H](CC(C)C)C(=O)N[C@@H](CCCN=C(N)N)C(=O)N[C@@H](Cc1ccc(O)cc1)C(=O)N[C@@H](CCCN=C(N)N)C(=O)N[C@@H](CCCN=C(N)N)C(=O)N[C@@H](Cc1c[nH]c2ccccc12)C(=O)N[C@@H](Cc1ccc(O)cc1)C(=O)O [IWWAKWGLKLLRYRRWY]

MIC [35]: 2 µM (≈ 4.79 µg/mL)
MIC [36]: 16 µM (≈ 38.3 µg/mL)
Structure (SMILES): CC[C@H](C)[C@H](N)C(=O)N[C@@H](Cc1c[nH]c2ccccc12)C(=O)N[C@@H](Cc1c[nH]c2ccccc12)C(=O)N[C@@H](C)C(=O)N[C@@H](CCCCN)C(=O)N[C@@H](Cc1c[nH]c2ccccc12)C(=O)NCC(=O)N[C@@H](CC(C)C)C(=O)N[C@@H](CCCCN)C(=O)N[C@@H](Cc1c[nH]c2ccccc12)C(=O)N[C@@H](CC(C)C)C(=O)N[C@@H](CCCN=C(N)N)C(=O)N[C@@H](Cc1ccc(O)cc1)C(=O)N[C@@H](CCCN=C(N)N)C(=O)N[C@@H](CCCN=C(N)N)C(=O)N[C@H](C(=O)N[C@@H](Cc1ccc(O)cc1)C(=O)O)[C@@H](C)CC [IWWAKWGLKWLRYRRIY]

MIC [1]: 6.3 µM (≈ 9.02 µg/mL)
MIC [3]: 3.1 µM (≈ 4.44 µg/mL)
MIC [4]: 6.3 µM (≈ 9.02 µg/mL)
MIC [5]: ≥ 50 µM
MIC [6]: ≥ 50 µM
MIC [7]: 6.3 µM (≈ 9.02 µg/mL)
MIC [9]: 6.3 µM (≈ 9.02 µg/mL)
MIC [10]: 50 µM (≈ 71.6 µg/mL)
MIC [25]: > 50 µM
Structure (SMILES): CC(C)C[C@H](NC(=O)[C@H](C)NC(=O)CNC(=O)[C@H](CC(C)C)NC(=O)[C@@H](N)CCCCN)C(=O)N[C@@H](Cc1c[nH]c2ccccc12)C(=O)N[C@@H](CC(N)=O)C(=O)N[C@H](C(=O)N[C@@H](C)C(=O)N[C@@H](CCCCN)C(=O)N[C@@H](CO)C(=O)N[C@H](C(=O)N[C@@H](Cc1ccccc1)C(N)=O)C(C)C)C(C)C [KLGALWNVAKSVF]
